Laboratory results from a melting point compilation (Tetko et al.; mined from patent text by program, amines drawn as free bases though some values may be those of a salt).

First: CC(C)C[C@H](NC(=O)c1c(F)cccc1F)C(=O)N[C@@H](C(C)C)[C@@H](O)c1c(-c2ccccc2)c1=O
Second: CCNc1nc(N)nc(-c2ccccc2)c1-c1ccc(=O)n(C(C)C)n1
The melting point of the first is lower: 111 to 122 °C for the first, 208 to 209 °C for the second.

First: CC(C)c1nc2cc(NC(=O)c3c(C(=O)N4CCC4)cnn3C)ccn2n1
Second: CCN(c1nc(C)cc(C(=O)N2CCOCC2)n1)c1ccc(C(C)C)cc1Br
The melting point of the first is higher: 226 to 227 °C for the first, 145 °C for the second.

First: CC1(C)OC(=O)C(=C(Nc2ccccc2Br)N2CCOCC2)C(=O)O1
Second: CC1CSC(=O)C2Cc3ccccc3N2C1=O (stereo not given)
The melting point of the first is higher: 212 to 213 °C for the first, 108 to 110 °C for the second.

Compared with NC(=S)Nc1cc(Cl)cc(Cl)c1, COC(=O)c1cc(Cl)c(Oc2ccc(O)cc2)c(Cl)c1 is lower in melting point: 180 °C for the first, 152 to 155 °C for the second.

Compared with COc1cc2[nH]c3ncnc(N4CCNCC4)c3c2cc1OC, COc1cc2cc(CO)nc(-c3ccnc(NN)c3)c2cc1OC is lower in melting point: 185 °C for the first, 157 to 159 °C for the second.

First: COc1cc2c(c3c1OC(C)(C)C3)C(c1cccc(N(C)C(N)=O)c1)=NC(C)(C)C2
Second: CCOC(=O)C[C@H]1O[C@H](c2cccc(OC)c2OC)c2cc(Cl)ccc2N(CC(C)(C)CO)C1=O
The melting point of the first is lower: 108 to 109 °C for the first, 188 to 190 °C for the second.

First: CN(C)S(=O)(=O)c1ccc2c(c1)C=C(C(=O)O)C(C(F)(F)F)O2 (stereo not given)
Second: C[C@@H]1CN(C(=O)[C@@](C)(O)C(F)(F)F)[C@@H](C)CN1S(=O)(=O)c1ccc(F)cc1
The melting point of the first is higher: 201 to 202 °C for the first, 174 to 175 °C for the second.

Compared with CN1CCN(c2cc(Cl)cc3c2c(=O)n(Cc2cccc(O)c2)c(=O)n3Cc2ccccc2)CC1, O=c1c2c(Cl)cc(Cl)cc2n(Cc2ccccc2)c(=O)n1Cc1cccc(Cl)c1 is lower in melting point: 234 to 236 °C for the first, 123 to 129 °C for the second.

First: CCC(CC)(CC(=O)c1ccc(OC)c(OC)c1)C(=O)O
Second: CCOc1ccc(C(C)=O)cc1C(=O)OC
The melting point of the first is higher: 106 to 109 °C for the first, 50 to 55 °C for the second.

Compared with CN(C)C=C1C(=O)N(c2cccc(C#N)c2)c2ccccc21, COc1nc(-c2ccccc2)c(-c2ccc(=O)n(C(C)C)n2)cc1C#N is higher in melting point: 140 to 143 °C for the first, 187 to 189 °C for the second.

First: Cc1ccc(S(=O)(=O)OC2CCC3(C)C4CCC5(C)C(=O)CCC5C4CC(O)C3(O)C2)cc1 (stereo not given)
Second: CC1=CC(=O)C=C2CCC3C4CCC(=O)C4(C)CCC3C12C (stereo not given)
The melting point of the first is lower: 154 to 156 °C for the first, 165 to 167 °C for the second.

First: CCCCOC(=O)c1cc(O)c(O)c(C#N)c1
Second: CC(=O)c1ccc(OCCCCl)c(O)c1
The melting point of the first is higher: 135 to 140 °C for the first, 101 to 103 °C for the second.

First: CC1CC(n2cncc2C(=O)O)c2ccccc21 (stereo not given)
Second: Nc1nccc(N2CCc3ccccc32)n1
The melting point of the first is higher: 209 °C for the first, 177 to 179 °C for the second.

First: CCCOc1ncc(NC(C)=O)cc1-c1nc2c(CCC)nn(C)c2c(=O)[nH]1
Second: CCN(CC)CCNC(=O)c1cc(Cl)c(NC(=O)c2ccc3ccccc3c2)cc1OC
The melting point of the first is higher: 252 to 253 °C for the first, 173 to 174 °C for the second.

O=C(c1cc2ccccc2o1)c1ccc(O)c(Cl)c1Cl and O=C(Oc1cc2ccccc2cn1)c1cc2ccccc2oc1=O cannot be ordered by melting point: 163 °C for the first, 160 to 163 °C for the second.

First: Cc1nc2c(-c3ccc(N4CCN(C)CC4)cc3)cnn2c(N)c1-c1ccc(F)cc1
Second: Cc1c(NC(=O)c2ccc(-c3ccc(F)cc3)cc2)ccc2cc(C(c3ccccc3)N3CCCC3)cnc12 (stereo not given)
The melting point of the first is higher: 289 to 291 °C for the first, 192 to 195 °C for the second.

Compared with CCC(=O)OC1c2ccccc2C(=O)N1c1ccc2ccc(Cl)nc2n1 (stereo not given), CC(O)(CO)c1cccc(OCc2ccc3ccccc3c2)c1 (single isomer, unassigned; (-)) is lower in melting point: 160 °C for the first, 104 to 106 °C for the second.

First: CCOC(C)n1c(C)nc(-c2ccccc2)c1-c1ccccc1 (stereo not given)
Second: O=c1[nH]c(-c2ccccc2)c(-c2ccccc2)o1
The melting point of the first is lower: 87 to 89 °C for the first, 158 to 159 °C for the second.

First: CC(C)(C)c1cc(N2CCN(C(=O)c3ccc([N+](=O)[O-])cc3)C2=O)cc(C(C)(C)C)c1O
Second: COc1ccc(NC(=O)c2cc([N+](=O)[O-])ccc2NC(=O)CF)c(C)c1
The melting point of the first is higher: greater than 260 °C for the first, 237 to 239 °C for the second.

Cc1ccc(C)c(P(=O)(C(=O)c2c(Cl)cccc2Cl)C(=O)c2c(Cl)cccc2Cl)c1 and Cc1cc(SCC(CS(=O)(=O)c2ccc(-c3ccc(Cl)cc3)cc2)C(=O)O)nc(C)n1 (stereo not given) cannot be ordered by melting point: 172 °C for the first, 170 to 172 °C for the second.

Compared with COC(=O)C1=C(C)NC2=C(C(=O)NCC2)C1c1ccc(F)c(Br)c1 (stereo not given), Cc1nc2ccc(N)cc2c(=O)n1C1CCC(=O)NC1=O (stereo not given) is higher in melting point: 150 to 152 °C for the first, 314 to 316 °C for the second.

Compared with CC(CC(=O)NC(=O)OC(C)(C)C)Nc1ccccc1 (stereo not given), CNCNc1cc(C(N)=O)ccc1C(C)(C)C is higher in melting point: 117 to 118 °C for the first, 143 to 144 °C for the second.

Compared with CON(C)C(=O)c1cc([N+](=O)[O-])c(F)cc1Cl, O=c1[nH]c2cc(C(F)(F)F)c([N+](=O)[O-])cc2n1-c1cc(Cl)cc(Br)c1O is higher in melting point: 89 °C for the first, 262 to 264 °C for the second.

Compared with CC1(COC(=O)Oc2c(F)c(F)c(F)c(F)c2F)COC(=O)OC1, COC(=O)CCSc1cc(=O)c2c(O)cc(O)c(C3CCN(C)CC3O)c2o1 (stereo not given) is lower in melting point: 130 to 131 °C for the first, 78 °C for the second.

Compared with O=C(CCCCC1(c2ccccc2)CC(O)=C(SCCc2ccccc2)C(=O)O1)NCc1ccccc1 (stereo not given), O=C(CCn1c2ccccc2c2ccccc21)OCCn1c2ccccc2c2ccccc21 is higher in melting point: 47 to 49 °C for the first, 163 to 165 °C for the second.

Compared with C=CCc1cc(-c2ccc(F)cc2)cc(C(=O)OC)c1O, CC[C@@H](c1ccccc1)N(Cc1ccc(C(=O)OC)cc1)S(=O)(=O)c1ccc(F)cc1 is higher in melting point: 76 to 77 °C for the first, 107 to 109 °C for the second.

First: COc1ccc(C(=O)C(=O)c2ccc(OC(F)F)cc2)cc1C#N
Second: CCOC(=O)Cc1ccc(Oc2ccc([N+](=O)[O-])cc2)cc1
The melting point of the first is higher: 150 to 155 °C for the first, 70.5 to 73 °C for the second.

Compared with C[C@H](NC(=O)CS)C(=O)N1CCC[C@H]1C(=O)O, COC(=O)C1=C(S(N)(=O)=O)CCC1 is lower in melting point: 152 to 155 °C for the first, 83 to 84 °C for the second.

First: Cc1c(SCCN2CCOCC2)ccnc1CSc1nc2ccccc2[nH]1
Second: N#Cc1cnc2cc(-c3ccc(CN4CCOCC4)cc3)sc2c1Nc1ccc(Oc2ccccc2)cc1
The melting point of the first is lower: 201 to 203 °C for the first, 254 to 256 °C for the second.

First: COC(=O)CSc1cccc(Br)n1
Second: COC(=O)COc1ccc(OC)cc1C=O
The melting point of the first is lower: 32 to 34 °C for the first, 74 to 75 °C for the second.

Compared with N#CCCNC(=O)c1cncc(-c2cccc3nn(Cc4cccc(C(F)(F)F)c4)cc23)c1, COc1ccc([C@@H]2CN(C)CC[C@@H]2NC(=O)c2cccc(C(F)(F)F)c2)cc1OC (relative stereo) is lower in melting point: 192 to 193 °C for the first, 122 to 124 °C for the second.

Compared with COc1ccc(S(=O)(=O)c2c(C(C)C)cn3cccc(C)c23)cc1, COc1ccc(Cn2cnc(C(=N)C#N)c2N)cc1 is lower in melting point: 103 °C for the first, 92 to 94 °C for the second.

Compared with COc1cc2cnc(Cl)nc2cc1OC, COc1ccc(CN(c2ccc(F)c(Cl)c2)c2ncnc3cc(OCCCN4CCOCC4)c([N+](=O)[O-])cc23)cc1OC is lower in melting point: 237 to 238 °C for the first, 129 to 132 °C for the second.

First: CCN1C(=O)CCCc2c1ccc(Nc1ncc(Cl)c(Nc3ccc(N4CCOCC4)cc3OC)n1)c2OC
Second: COc1ccc(-c2cnc(N3CCc4c([nH]c5ccccc45)C3c3ccc4c(c3)OCO4)nc2)cc1 (stereo not given)
The melting point of the first is higher: 210 to 212 °C for the first, 200 to 202 °C for the second.

Compared with O=C(Cc1ccc(-n2ccnc2)cc1)NOc1ccccn1, OCCCc1ccc(OCc2ccccc2)cc1 is lower in melting point: 110 °C for the first, 63 to 64 °C for the second.

Compared with NC(=O)c1ccc(F)c2c1CC(N(CCCCc1c[nH]c3ccc(F)cc13)C1CCC1)CO2 (stereo not given), CC(=O)OCC1CCn2c(c(C3=C(c4c[nH]c5ccccc45)C(=O)NC3=O)c3ccccc32)C1 (stereo not given) is higher in melting point: 122 °C for the first, 264 to 265 °C for the second.

First: Cc1ccc(-c2nc(COc3ccc(CCCn4ccnc4)cc3)co2)o1
Second: Cc1c(NC(=O)c2ccc(OCc3ccc(F)cc3)cc2)ccc2cc(CN3CCCC3)cnc12
The melting point of the first is lower: 109 to 110 °C for the first, 177 to 178 °C for the second.

Compared with CCC12CCC3C4CCC(=O)C=C4CCC3C1CCC2=O (stereo not given), CC12CCC3C(CCC4CC(=O)CC(C)(O)C43C)C1C(O)CC2=O (stereo not given) is higher in melting point: 156 to 158 °C for the first, 227 to 229 °C for the second.

First: N#Cc1c(N)nc2ccccc2c1NCc1ccccc1
Second: N#Cc1cnc2sc(S(=O)(=O)Cc3ccccc3)nn2c1=O
The melting point of the first is lower: 206 °C for the first, 219 to 221 °C for the second.

Cc1cc(C)c(C(=O)O)s1 and Cc1ccc(C(=O)c2ccc(CC(=O)O)n2C)s1 cannot be ordered by melting point: 153 to 155 °C for the first, 152 to 154 °C for the second.

Compared with Cc1cccc2sc3ccccc3c(=O)c12, CC(C(=O)O)n1c(-c2ccc(Cl)cc2)nc2cccnc21 (stereo not given) is higher in melting point: 107 to 132 °C for the first, 226 to 229 °C for the second.

First: CCOCc1nnc2c(C(F)(F)F)c(Cl)ccn12
Second: Cn1ncnc1COc1nn2c(-c3cc(CF)on3)nnc2c2ccccc12
The melting point of the first is lower: 104 °C for the first, 250 to 252 °C for the second.

Compared with CCC(=O)OC(c1nc2c(C(F)(F)F)cccc2c(O)c1C(=O)Nc1nccs1)C(C)C (stereo not given), COc1c(C(O)CNC(C)(C)Cc2c(C)c(C)cc(C)c2C)ccc(O)c1O (stereo not given) is lower in melting point: 222 °C for the first, 165 to 168 °C for the second.

First: COC(=O)C1(O)CSC(SC(C)=O)=C1Cl (stereo not given)
Second: C#CCCC(O)=C(C#N)C(=O)Nc1ccc(Cl)c(C)c1
The melting point of the first is lower: 133 to 135 °C for the first, 147 °C for the second.

First: Cc1nccn1-c1nc(-c2ccc(Cl)cc2)c(CCO)o1
Second: CCCCc1nc(Cl)c(COc2ccccn2)n1Cc1ccc(-c2ccccc2-c2nnn[nH]2)cc1
The melting point of the first is higher: 159 to 160 °C for the first, 98 to 100 °C for the second.

First: Nc1nccc2cc(CNC(=O)C3CCCN3)ccc12 (stereo not given)
Second: CCC1CCn2c(nc(-c3ccncc3)cc2=O)N1 (stereo not given)
The melting point of the first is lower: 140 to 142 °C for the first, 244 to 246 °C for the second.

CCc1cc2[nH]c(=O)c(=O)[nH]c2c([N+](=O)[O-])c1Cl and Cc1cc(=O)c2[nH]nc(C)c2[nH]1 cannot be ordered by melting point: greater than 330 °C for the first, greater than 346 °C for the second.

Compared with Cn1cnnc1C(c1ccc(C#N)cc1)c1cc2c3c(c1)c(-c1cccc(Cl)c1)cc(=O)n3CC2 (stereo not given), O=C(O)c1ccc(-c2ccc(S(=O)(=O)N3CCCC(CO)C3)cc2)[nH]c1=O (stereo not given) is higher in melting point: 174 °C for the first, 300 to 304 °C for the second.

First: NC(=S)c1cn(C2OC(CO)C(O)C2O)nn1 (stereo not given)
Second: NCCc1ccc(C(N)=O)cc1
The melting point of the first is higher: 152 to 154 °C for the first, 132 to 133 °C for the second.

First: CN(C)C(=O)C1CCN(c2c(Cl)cncc2Cl)CC1
Second: Cc1c(F)c(N2CCNCC2)cc2c1c(=O)c(C(=O)O)cn2C1CC1
The melting point of the first is lower: 120 to 122 °C for the first, 226 to 228 °C for the second.
